{"source": "patent US7351693B2", "about": "“Peptides and nucleic acids of the cathelicidin family, derived from fish, and uses thereof” (priority 2002, dated 2008)", "test_system": "trout bactenecin gene", "experiment": "RT-PCR analysis of trout bactenecin (cathelicidin) expression in stimulated head kidney leucocytes", "assay_type": "cell-based, rainbow trout", "details": "for effect on LPS-stimulated expression of trout bactenecin: added 3 h after LPS stimulation (5 μg/ml), FIG. 14", "method": "Rainbow trout head kidney leucocytes were obtained by disrupting the head kidney tissue through a 100 μm nylon mesh. After washing, the leucocytes were suspended in L15 medium (Gibco) and stimulated as follows: • (A) LPS time course: Cells were stimulated with 5 μg/ml of E. coli 0127:B8 lipopolysaccharide (LPS, Sigma) for different time periods (0, 0.5 h, 1 h, 2 h, 3 h, 4 h). • (B) Transcription/translation inhibition: Streptomyces actinomycin D (Sigma) at 100 ng/ml was added to the cells after 3 h of LPS induction (5 μg/ml) to inhibit transcription. Alternatively cycloheximide at 10 μg/ml was added to the cells after 3 h of LPS stimulation (as above) to inhibit translation. • (C) Different inducers: 5 μg/ml of Phytohemagglutinin (PHA, Sigma), 25 ng/ml of Phorbol Myristate Acetate (PMA, Sigma) alone, or in combination with 5×10^−7M of Calcium Ionophore (Sigma) were added to the cells for 4 h.\nAt the end of the relevant time period, total RNA was isolated from approximately 2×10^7 cells, with RNAzol B (Biogenesis) according to the manufacturer's instructions. The RNA was then reverse transcribed to cDNA and the product used as template in PCRs for the trout cathelicidin gene and β-actin as a positive control. The primers used for the amplification of the cathelicidin gene were fF1 (5′-[…]-3′ SEQ ID NO: 80) and R1 (5′-[…]-3′ SEQ ID NO: 81), and for the β-actin were forward (5′-ATGGAAGATGAAATCGCC-3′ SEQ ID NO: 82) and reverse (5′-TGCCAGATCTTCTCCATG-3′ SEQ ID NO: 83). The PCR reaction mix was as follows: 5 μl of phage mix, 1.5 μl 10 mM dNTPs mix, 0.125 μl of 5 units/μl Taq DNA Polymerase, 2.5 μl 10×NH4 buffer, 0.75 μl 50 mM MgCl2, 1.5 μl forward primer, 1.5 μl reverse primer and 12.125 μl of dH2O. The cycling protocol was as follows: initial melting at 94° C. for 4 min, followed by 30 cycles of 94° C. for 45 sec, 60° C. for 45 sec, 72° C. for 1 min, with a final elongation at 72° C. for 10 min. The expected size of the products was 320 bp for the cathelicidin gene and 260 bp for β-actin.", "note": "Numbered stars: 1 amine (or outer) side, 2 acyl side, 3 side chain; on linkers, the order of the positions; unused ones are H or OH. Bridge positions count the residues as written; N and C are the ends. Square brackets hold non-standard residues; d marks the D form. Peptide text beside a SMILES is read from it. I, II: the chains in the order shown. Actinocin(9to1) = Cc1c2oc3c(C)ccc(C(=O)[*:1])c3nc-2c(C(=O)[*:2])c(N)c1=O; NMeV = CN[C@H](C(=O)O)C(C)C; Sar = CNCC(=O)O", "data": [{"smiles": "C[C@@H]1C[C@@H]([C@H](O)CC2CC(=O)NC(=O)C2)C(=O)[C@@H](C)C1", "note": "[Cycloheximide, cycloheximide]", "values": [{"measurement": "effect on LPS-stimulated expression of trout bactenecin", "result": "did not induce a superinduction"}]}, {"smiles": "Cc1c2oc3c(C)ccc(C(=O)N[C@@H]4C(=O)N[C@H](C(C)C)C(=O)N5CCC[C@H]5C(=O)N(C)CC(=O)N(C)[C@@H](C(C)C)C(=O)O[C@@H]4C)c3nc-2c(C(=O)N[C@@H]2C(=O)N[C@H](C(C)C)C(=O)N3CCC[C@H]3C(=O)N(C)CC(=O)N(C)[C@@H](C(C)C)C(=O)O[C@@H]2C)c(N)c1=O", "note": "[actinomycin D] (I: T[dV]P[Sar][NMeV] / II: T[dV]P[Sar][NMeV]; ester I:1-I:C, II:1-II:C; linker I:N-II:N via Actinocin(9to1))", "values": [{"measurement": "effect on LPS-stimulated expression of trout bactenecin", "result": "inhibited completely"}]}, {"smiles": "CCCCCCCCCCCCCC(=O)O[C@@H]1[C@@H](C)[C@@]2(O)[C@@H](C=C(CO)C[C@]3(O)C(=O)C(C)=C[C@@H]23)[C@@H]2C(C)(C)[C@]12OC(C)=O", "note": "[PMA, Phorbol Myristate Acetate]", "values": [{"measurement": "induction of trout bactenecin expression in leucocytes", "setting": "after 4 h of induction, FIG. 13", "result": "only PMA+calcium ionophore induced expression"}]}]}
